Data taken from patent publication US12427138B2, “Treatment of Meniere's disease” (SOUND PHARMACEUTICALS INCORPORATED, priority 2016, dated 2025).
“Also recorded” adds a separate entry of the source.

Legend:
[1] = tested on: adults with Meniere's disease; test: Phase 1b clinical study: safety and tolerability of SPI-1005; assay type: in vivo, human; conditions: first two cohorts (26 of 40 subjects); for safety and tolerability: oral dosing BID for 21 days
Description: (§1) The general approach for the investigation of the safety and efficacy of SPI-1005 for Meniere's disease is conducting this phase lb, safety, pharmacokinetic and pharmacodynamic study in 40 adults with Meniere's disease. The study is evaluating escalating doses of SPI-1005 at 200, 400 or 600 mg po BID versus placebo for twenty-one days for impact on pure-tone audiometry, speech discrimination, electrocochleography, and patient-reported outcomes using validated questionnaires for assessing vertigo and tinnitus (Hornibrook, et al., 2012; Meikle, et al., 2011; Yardley, et al., 2004). This study is ongoing and being conducted in compliance with the protocol, Good Clinical Practice (GCP) and the applicable regulatory requirements.
The safety and tolerability of SPI-1005 is being determined by examining the toxicities and adverse events that are attributable to treatment. […]
Before, during, and for 28 days after administration of SPI-1005, patients were evaluated for safety by history, physical examination, vital signs and blood tests (complete blood count [CBC], Chemistry-20 [Chem-20]). Peak and trough plasma levels of ebselen and its major metabolite were determined using liquid chromatography-mass spectrometry (LCMS) at certain time points. Additionally, plasma was analyzed by High Performance Liquid Chromatography-Inductively Coupled Plasma-Mass Spectrometry (HPLC-ICP-MS) for total selenium at the corresponding time points. Patients were monitored for adverse events at each clinic visit. Female patients received pregnancy testing, and those found to be pregnant were excluded or discontinued from the study and monitored for adverse events. […]
History and physical examinations, vital signs and analysis of lab reports were performed to evaluate the safety of SPI-1005. […] Blood test results were analyzed according to currently established laboratory norms. […]
Blood testing was performed at specified intervals to evaluate the safety of SPI-1005. […] Blood was collected and shipped to a designated CRO(s) to quantify ebselen, ebselen metabolite, and total selenium. […]

[2] = Noguchi et al., 1992; 1994; cited from earlier work
[3] = tested on: adults with Meniere's disease; test: Phase 1b clinical study: Tinnitus Functional Index (TFI); assay type: in vivo, human
Description: as §1, with “This study is ongoing and being conducted in compliance with the protocol, Good Clinical Practice (GCP) and the applicable regulatory requirements.” left out
(§2) The effect of SPI-1005 on hearing and vertigo was evaluated at baseline, at the end of 21 days of treatment and 28 days after completing treatment. Tinnitus was evaluated at baseline, weekly during treatment, and 7 and 28 days after treatment. Hearing was evaluated using pure-tone audiometric testing at 0.25, 0.5, 1, 2, 3, 4, 6, and 8 kHz, and speech discrimination using the WINT at 24, 20, 16, 12, 8, 4, and 0 Signal-to-Noise ratio (SNR). The severity of vertigo was assessed using the VSS. The severity of tinnitus was assessed using the TFI. […]
(§3) Audiological evaluations were performed at specified intervals to evaluate the efficacy of SPI-1005. […] These were scored by study personnel. […]

[4] = tested on: adults with Meniere's disease; test: Phase 1b clinical study: Tinnitus Loudness (TL) visual analogue scale; assay type: in vivo, human
Description: as §1
Multiple clinical assessments and analysis of auditory and vestibular function • Pure tone audiometry and word recognition scores: Baseline, 21d tx, and 28d post-tx • Hearing loss is typically unilateral and low frequency (0.25, 0.5 and 1 kHz) • Significant hearing improvement ≥10 dB reduction from baseline • Words in noise tests (WINT) 35 words under 7 different SNRs to each ear (0-35) • Significant WINT improvement ≥10% increase from baseline • Tinnitus Functional Index (TFI) : Baseline, and 7d, 14d and 21d tx, and 7d and 28d post-tx • 25 questions answered by patient regarding their tinnitus severity (0-100) • Significant TFI improvement ≥10 pt reduction from baseline • Tinnitus Loudness (TL) answered by patient on a visual analogue scale (0-10) • Significant TL improvement ≥2 pt reduction from baseline • Vertigo Symptom Scale (VSS): Baseline, 21d tx, and 28d post-tx • 15 questions answered by patient regarding their vertigo severity (0-60) • Significant VSS improvement ≥6 pt reduction from baseline

[5] = tested on: adults with Meniere's disease; test: Phase 1b clinical study: initial analysis of efficacy, secondary endpoints versus placebo; assay type: in vivo, human; conditions: two analyzed cohorts
Description: as §1, with “requirements. […]” for “requirements.”
Study participants were been randomized to SPI-1005 or placebo in this double-blind, dose-escalation study to evaluate its safety and preliminary efficacy. Patients, aged 19-70 years, with probable or definite Meniere's disease have undergone baseline testing to have their severity of sensorineural hearing loss, tinnitus and vertigo determined before the start of study treatment (see Table 3: Schedule of Assessments). […]

[6] = tested on: cytochrome-C release from mitochondria; conditions: during lipid peroxidation; Namura et al., 2001; cited from earlier work
[7] = tested on: cochlea following noise- or ototoxin-induced injury; conditions: preclinical animal studies; cited from earlier work
[8] = tested on: adults with Meniere's disease; test: Phase 1b clinical study: Vertigo Symptom Scale (VSS); assay type: in vivo, human
Description: as §1, with “This study is ongoing and being conducted in compliance with the protocol, Good Clinical Practice (GCP) and the applicable regulatory requirements.” left out
as §2, §3

[9] = 25° Celsius; cited from earlier work
[10] = tested on: adults with Meniere's disease; test: Phase 1b clinical study: pure-tone audiometry (PTA), low frequency hearing; assay type: in vivo, human
Description: as §1
(§4) The effect of SPI-1005 on hearing and vertigo was evaluated at baseline, at the end of 21 days of treatment and 28 days after completing treatment. Tinnitus was evaluated at baseline, weekly during treatment, and 7 and 28 days after treatment. Hearing was evaluated using pure-tone audiometric testing at 0.25, 0.5, 1, 2, 3, 4, 6, and 8 kHz, and speech discrimination using the WINT at 24, 20, 16, 12, 8, 4, and 0 Signal-to-Noise ratio (SNR). The severity of vertigo was assessed using the VSS. The severity of tinnitus was assessed using the TFI. In addition, ECochG was conducted at baseline, at the end of treatment and 28 days after completing treatment in order to measure the pharmacodynamic response.
as §3
(§5) Audiometric data were collected in the form of categorical and continuous variables. Categorical data were analyzed using the chi-square distribution. Continuous data were analyzed using mixed-effects multiple-repeated measures, and post-hoc analysis, when necessary, was adjusted using Bonferroni applications. Non-parametric tests included the Mann-Whitney U. Calculated p-values were considered statistically significant at or below an alpha value of 0.05. […]

[11] = tested on: adults with Meniere's disease; test: Phase 1b clinical study: speech discrimination, Words-in-Noise Test (WINT) / word recognition scores; assay type: in vivo, human
Description: as §1, §4, §3, §5

O=c1c2ccccc2[se]n1-c1ccccc1 [ebselen, 2-phenyl-1,2-benzisoselenazol-3(2H)-one]
drug-related adverse events [1]: no drug-related adverse events have occurred
safety and tolerability [1]: safe and well tolerated
safety and tolerability ([1]; listed as SPI-1005): well tolerated with no adverse events due to study drug
activity against peroxynitrite [2]: strong activity against peroxynitrite
share of actives with significant TFI improvement ≥10 pt reduction ([3]; placebo 50%): 40%
highest improvement in TFI score (reduction) ([3]; scale 0-100): ≤ 62 pt
TL improvement, actives vs placebo ([4]; human, in vivo): greater in actives than placebo
share of actives with significant TL improvement ≥2 pt reduction ([4]; placebo 33%): 70%
highest improvement in tinnitus loudness (reduction) ([4]; scale 0-10): ≤ 8 pt
clinical efficacy (hearing, tinnitus, vertigo) versus placebo [5]: achieved several secondary endpoints versus placebo; also recorded: good clinical efficacy
clinical efficacy (hearing, tinnitus, vertigo) versus placebo ([5]; listed as Ebselen): clinically relevant improvements in hearing, tinnitus and vertigo
effect on cytochrome-C release from mitochondria and nuclear damage [6]: reduces cytochrome-C release from mitochondria and nuclear damage
effect on pathologic changes in the cochlea [7]: prevent or reverse the pathologic changes in the cochlea
VSS improvement, actives vs placebo ([8]; human, in vivo): greater in actives than placebo
share of actives with significant VSS improvement ≥6 pt reduction ([8]; placebo 33%): 55%
solubility in aqueous solutions [9]: slightly soluble
highest improvement in low frequency (0.25, 0.5, and 1 kHz) hearing ([10]; PTA, oral dosing 21 days, first two cohorts): ≤ 35 dB
PTA improvement, actives vs placebos ([10]; first two cohorts): significant and specific to actives vs placebos
share of actives with significant hearing improvement ≥10 dB ([10]; ≥10 dB reduction from baseline, no significant improvement in placebos): 60%
WINT improvement, actives vs placebos ([11]; first two cohorts): significant and specific to actives vs placebos
highest improvement over baseline WRS ([11]; word recognition scores, oral dosing 21 days): ≤ 120%
share of actives with significant WINT improvement ≥10% increase ([11]; ≥10% increase from baseline, no significant improvement in placebos): 35%
